Experimental data published in ChEMBL document CHEMBL1201862, “PubChem BioAssay data set” (2004).
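Each compound was tested at five concentrations against cells in 96-well plates for 48 hours. Here, GI50 denotes the concentration required for 50% inhibition of growth.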 The source made the active and inactive calls. No stated cut-off is given here; in the data, active = GI50 up to about 1.1 µM and inactive = higher.

Experiments:
Assay in all cases: growth of human tumour cells (NCI), 48 h
SF-295 = system: SF-295
SW-620 = system: SW-620
IGROV-1 = system: IGROV-1
KM12 = system: KM12
HCT-15 = system: HCT-15
NCI-H23 = system: NCI-H23
CCRF-CEM = system: CCRF-CEM
HT-29 = system: HT-29
MCF7 = system: MCF7
OVCAR-4 = system: OVCAR-4
M14 = system: M14
UACC-62 = system: UACC-62
HL-60 = system: HL-60
DU-145 = system: DU-145
LOX IMVI = system: LOX IMVI
OVCAR-8 = system: OVCAR-8
SK-MEL-2 = system: SK-MEL-2
SK-OV-3 = system: SK-OV-3

| Compound | GI50 (SF-295) | GI50 (SW-620) | GI50 (IGROV-1) | GI50 (KM12) | GI50 (HCT-15) | GI50 (NCI-H23) | GI50 (CCRF-CEM) | GI50 (HT-29) | GI50 (MCF7) | GI50 (OVCAR-4) | GI50 (M14) | GI50 (UACC-62) | GI50 (HL-60) | GI50 (DU-145) | GI50 (LOX IMVI) | GI50 (OVCAR-8) | GI50 (SK-MEL-2) | GI50 (SK-OV-3) |
| --- | --- | --- | --- | --- | --- | --- | --- | --- | --- | --- | --- | --- | --- | --- | --- | --- | --- | --- |
| O=c1[nH]nc(-c2ccccc2)n1/N=C/c1ccncc1 | > 100 µM (inactive) | > 100 µM (inactive) | > 100 µM (inactive) | > 100 µM (inactive) | > 100 µM | > 100 µM (inactive) | > 100 µM (inactive) | > 100 µM (inactive) | > 100 µM (inactive) | > 100 µM (inactive) | > 100 µM (inactive) | > 100 µM (inactive) | > 100 µM (inactive) | > 100 µM (inactive) | > 100 µM (inactive) | > 100 µM (inactive) | – | – |
| COc1cc(CC2C(=O)OCC2Cc2ccc(OC)c(OC)c2)ccc1O (stereo not drawn) | 8.85 µM (inactive) | > 100 µM (inactive) | > 75.3 µM (inactive) | > 100 µM (inactive) | > 100 µM | 10.9 µM (inactive) | – | > 100 µM (inactive) | > 100 µM (inactive) | > 100 µM (inactive) | > 100 µM (inactive) | > 100 µM (inactive) | > 100 µM (inactive) | > 100 µM (inactive) | 30.8 µM (inactive) | > 100 µM (inactive) | > 100 µM (inactive) | > 100 µM (inactive) |
| c1ccc2cc(CN3CCC(C4CCN(Cc5ccc6ccccc6c5)CC4)CC3)ccc2c1 | 1.9 µM (inactive) | 2.74 µM (inactive) | 6.4 µM (inactive) | 2.97 µM (inactive) | 3.18 µM | 11.4 µM (inactive) | 4.06 µM (inactive) | 1.52 µM (inactive) | 2.06 µM (inactive) | 6.21 µM (inactive) | 1.91 µM (inactive) | 2.03 µM (inactive) | 1.53 µM (inactive) | 11.8 µM (inactive) | 2.22 µM (inactive) | 3.92 µM (inactive) | 2.18 µM (inactive) | 10.1 µM (inactive) |
| CNC(=O)Oc1ccc(C(=S)Nc2ccc(Br)cc2)cc1 | – | 23.1 µM (inactive) | 0.783 µM (active) | 14.3 µM (inactive) | 16.1 µM | 15.7 µM (inactive) | 1.81 µM (inactive) | 19.9 µM (inactive) | 18.3 µM (inactive) | 18.5 µM (inactive) | 18.1 µM (inactive) | 12.9 µM (inactive) | 2.1 µM (inactive) | 26.5 µM (inactive) | 13.4 µM (inactive) | 7.98 µM (inactive) | 17.7 µM (inactive) | 44 µM (inactive) |
| CN(C)c1ccc(-c2ccc(N(C)C)c3n[se]nc23)c2n[se]nc12 | > 100 µM (inactive) | > 100 µM (inactive) | > 100 µM (inactive) | > 100 µM (inactive) | > 100 µM | > 100 µM (inactive) | > 100 µM (inactive) | > 100 µM (inactive) | > 100 µM (inactive) | > 100 µM (inactive) | – | > 100 µM (inactive) | > 100 µM (inactive) | > 100 µM (inactive) | > 100 µM (inactive) | > 100 µM (inactive) | > 100 µM (inactive) | > 100 µM (inactive) |
| Cc1c(O)c(=O)ccn1CCc1c[nH]c2ccccc12 | 3.93 µM (inactive) | 7.23 µM (inactive) | – | 22 µM (inactive) | 0.397 µM | 20.5 µM (inactive) | – | 3.75 µM (inactive) | 4.89 µM (inactive) | – | 7.48 µM (inactive) | – | 19.4 µM (inactive) | 6.44 µM (inactive) | 0.0335 µM (active) | 8.39 µM (inactive) | – | 12.5 µM (inactive) |
| COc1ccc(/C=C2\N=C(c3ccccc3)N(NC3=NC(=O)CC(=O)N3)C2=O)cc1 | – | > 100 µM (inactive) | > 100 µM (inactive) | > 100 µM (inactive) | > 100 µM | > 100 µM (inactive) | 39.2 µM (inactive) | > 100 µM (inactive) | 20.4 µM (inactive) | > 100 µM (inactive) | > 100 µM (inactive) | > 100 µM (inactive) | > 100 µM (inactive) | > 100 µM (inactive) | – | > 100 µM (inactive) | > 100 µM (inactive) | > 100 µM (inactive) |
| O=C1C=CC2(C=C1)O[C@H](COCc1ccccc1)[C@@H](COCc1ccccc1)O2 | 16 µM (inactive) | 0.271 µM (active) | 1.61 µM (inactive) | 3.49 µM (inactive) | 1.24 µM | 1.77 µM (inactive) | – | 2.34 µM (inactive) | 0.313 µM (active) | 2.23 µM (inactive) | 1.78 µM (inactive) | 1.88 µM (inactive) | 2.59 µM (inactive) | 2.7 µM (inactive) | 1.56 µM (inactive) | 0.305 µM (active) | 1.71 µM (inactive) | 15.7 µM (inactive) |
| CCOC(=O)c1sc2c(c1OC(=O)c1ccccc1)c(=O)n(-c1ccccc1)c(=S)n2-c1ccccc1 | 49.7 µM (inactive) | 44.6 µM (inactive) | 19.8 µM (inactive) | 40.6 µM (inactive) | 45.5 µM | 21 µM (inactive) | 41.8 µM (inactive) | 19.2 µM (inactive) | 29.4 µM (inactive) | 12.4 µM (inactive) | 19.9 µM (inactive) | 23.7 µM (inactive) | 36 µM (inactive) | 34.1 µM (inactive) | 40.3 µM (inactive) | 34.3 µM (inactive) | – | 38.2 µM (inactive) |
| O=C1C=Cc2c(Br)sc(Br)c21 | > 100 µM (inactive) | 18 µM (inactive) | 18.6 µM (inactive) | 37.4 µM (inactive) | 26.2 µM | 26.7 µM (inactive) | 2.64 µM (inactive) | 28.2 µM (inactive) | 19.3 µM (inactive) | – | 25.9 µM (inactive) | 23.7 µM (inactive) | 23.1 µM (inactive) | 43.8 µM (inactive) | 20.5 µM (inactive) | 26.5 µM (inactive) | 26.9 µM (inactive) | 88.1 µM (inactive) |
| CN1CCN(Cn2nc(-c3ccccc3)n(/N=C/c3ccc(-c4ccc(Cl)cc4Cl)o3)c2=S)CC1 | 11.4 µM (inactive) | 11.8 µM (inactive) | 8.97 µM (inactive) | 9.73 µM (inactive) | 4.18 µM | 18.7 µM (inactive) | 4.17 µM (inactive) | 12.3 µM (inactive) | 12.4 µM (inactive) | 16.3 µM (inactive) | 10.8 µM (inactive) | – | 4.58 µM (inactive) | 8.91 µM (inactive) | 13 µM (inactive) | 8.45 µM (inactive) | 20.7 µM (inactive) | 13.5 µM (inactive) |
| CCOC(=O)c1[nH]c(Br)c(-c2ccc(OC)c(OC)c2)c1Br | 0.00975 µM (active) | 0.0302 µM (active) | 0.0552 µM (active) | 0.0303 µM (active) | 0.0527 µM | 0.0891 µM (active) | 0.0173 µM (active) | – | 0.245 µM (active) | 4.82 µM (inactive) | 0.028 µM (active) | 0.0418 µM (active) | 0.0679 µM (active) | 0.0476 µM (active) | 0.0179 µM (active) | 0.0423 µM (active) | 0.0336 µM (active) | – |
